Data set [1] has as its system Rat. Nature of the data set: concentration in plasma after dosing. The settings on record: dosed: Wyeth-14643, 2.0 mg/kg, oral, Male, Sprague-Dawley.
The subject of data set [2] is Rat. Nature of the data set: concentration in plasma after dosing. The conditions noted are these: 1 h; dosed: Wyeth-14643; 2.0 mg/kg; iv; Male; Sprague-Dawley.
Data set [3] deals with Rat. Put plainly: concentration in plasma after dosing. The conditions noted are these: 3 h; dosed: Wyeth-14643; 1.0 mg/kg; oral; Male; Sprague-Dawley.
In data set [4] the test system is Rat. Nature of the data set: concentration in heart after dosing. The conditions noted are these: 2 h; dosed: Bis 2-Chloroethoxy Methane; 20 mg/kg; iv; Female; F344.
For data set [5], the system named is Rat. Nature of the data set: concentration in plasma after dosing. The conditions noted are these: 1 h; dosed: Bis 2-Chloroethoxy Methane; 20 mg/kg; iv; Female; F344.
Data set [6] relates to Rat. Put plainly: concentration in thymus after dosing. The settings on record: 40 min; dosed: Bis 2-Chloroethoxy Methane; 20 mg/kg; iv; Male; F344.
Data set [7] concerns Rat. Nature of the data set: concentration in plasma after dosing. The settings on record: 5 h; dosed: Bis 2-Chloroethoxy Methane; 20 mg/kg; iv; Male; F344.
Data set [8] relates to Rat. Nature of the data set: concentration in plasma after dosing. The conditions noted are these: 5 h; dosed: Bis 2-Chloroethoxy Methane; 20 mg/kg; iv; Female; F344.
Data set [9] deals with Rat. Nature of the data set: concentration in heart after dosing. The settings on record: 5 h; dosed: Bis 2-Chloroethoxy Methane; 20 mg/kg; iv; Male; F344.
Data set [10] deals with Rat. Put plainly: concentration in thymus after dosing. The settings on record: 1 h; dosed: Bis 2-Chloroethoxy Methane; 20 mg/kg; iv; Female; F344.
Data set [11] concerns Rat. Put plainly: concentration in kidney after dosing. The settings on record: 3 h; dosed: Fluorotelomer alcohol 8+2; 80 mg/kg; oral; Female; Harlan Sprague Dawley.
The subject of data set [12] is Rat. Put plainly: concentration in plasma after dosing. The conditions noted are these: dosed: Fluorotelomer alcohol 8+2, 12 mg/kg, oral, Male, Harlan Sprague Dawley.
Data set [13] deals with Rat. Put plainly: concentration in kidney after dosing. The settings on record: 6 h; dosed: Fluorotelomer alcohol 8+2; 24 mg/kg; oral; Male; Harlan Sprague Dawley.
Data set [14] deals with Rat. Nature of the data set: concentration in plasma after dosing. The conditions noted are these: dosed: Fluorotelomer alcohol 8+2, 12 mg/kg, iv, Male, F344.
For data set [15], the system named is Rat. Nature of the data set: concentration in brain after dosing. The conditions noted are these: 6 h; dosed: Fluorotelomer alcohol 8+2; 80 mg/kg; oral; Female; Harlan Sprague Dawley.
Data set [16] has as its system Rat. Put plainly: concentration in kidney after dosing. The settings on record: 12 h; dosed: Fluorotelomer alcohol 8+2; 80 mg/kg; oral; Female; Harlan Sprague Dawley.
For data set [17], the system named is Rat. Nature of the data set: concentration in plasma after dosing. The conditions noted are these: 5 min; dosed: Di-n-butyl phthalate; 100 mg/kg; oral; Male; Sprague-Dawley.
Data set [18] concerns Rat. Nature of the data set: concentration in plasma after dosing. The settings on record: 2 h; dosed: Di-n-butyl phthalate; 50 mg/kg; oral; Male; Sprague-Dawley.
Data set [19] has as its system Rat. Nature of the data set: concentration in plasma after dosing. The settings on record: dosed: Perfluorodecanoic acid, 2 mg/kg, iv, Male, F344.
The test system of data set [20] is Rat. Nature of the data set: concentration in liver after dosing. The conditions noted are these: 864 h; dosed: Perfluorodecanoic acid; 10 mg/kg; oral; Female; Harlan Sprague Dawley.
Data set [21] deals with Rat. Nature of the data set: concentration in kidney after dosing. The settings on record: 1848 h; dosed: Perfluorodecanoic acid; 10 mg/kg; oral; Male; Harlan Sprague Dawley.
Data set [22] relates to Rat. Put plainly: concentration in plasma after dosing. The conditions noted are these: 30 h; dosed: Primidone; 130 mg/kg; oral; Female; F344.
Data set [23] concerns Rat. Nature of the data set: concentration in plasma after dosing. The conditions noted are these: 0.5 h; dosed: Primidone; 130 mg/kg; oral; Female; F344.
The subject of data set [24] is Rat. Put plainly: concentration in thymus after dosing. The settings on record: 10 h; dosed: Thiodiglycolic Acid; 20 mg/kg; iv; Male; F344.
Data set [25] has as its system Rat. Nature of the data set: concentration in thymus after dosing. The settings on record: 5.333 h; dosed: Thiodiglycolic Acid; 20 mg/kg; iv; Female; Harlan Sprague Dawley.
In data set [26] the test system is Rat. Put plainly: concentration in liver after dosing. The settings on record: 40 min; dosed: Thiodiglycolic Acid; 20 mg/kg; iv; Male; Harlan Sprague Dawley.
Data set [27] has as its system Rat. Nature of the data set: concentration in plasma after dosing. The conditions noted are these: 2 h; dosed: Thiodiglycolic Acid; 20 mg/kg; iv; Female; Harlan Sprague Dawley.
Data set [28] relates to Rat. Put plainly: concentration in thymus after dosing. The settings on record: 1 h; dosed: Thiodiglycolic Acid; 20 mg/kg; iv; Male; Harlan Sprague Dawley.
The test system of data set [29] is Rat. Nature of the data set: concentration in thymus after dosing. The settings on record: 10 min; dosed: Thiodiglycolic Acid; 20 mg/kg; iv; Male; F344.
Data set [30] deals with Rat. Put plainly: concentration in liver after dosing. The conditions noted are these: 20 min; dosed: Thiodiglycolic Acid; 20 mg/kg; iv; Female; Harlan Sprague Dawley.
The subject of data set [31] is Rat. Nature of the data set: concentration in plasma after dosing. The settings on record: dosed: dichloroacetic acid, 100 mg/kg, oral, Male, F344.
Data set [32] has as its system Rat. Nature of the data set: concentration in plasma after dosing. The settings on record: 5 min; dosed: dichloroacetic acid; 10 mg/kg; iv; Male; F344.

SMILES strings stand for the structures.

Take `Cc1cccc(Nc2cc(Cl)nc(SCC(=O)O)n2)c1C`: the concentration in plasma in the data set with Rat [1] (0.25 h) turned out to be 889 ng/mL; in the data set with Rat [1] (4 h), 160 ng/mL; in the data set on Rat [2] it was 2380 ng/mL; in the data set on Rat [3] it was 180 ng/mL.
Take `ClCCOCOCCCl` [Bis 2-Chloroethoxy Methane]: the concentration in heart in the data set with Rat [4] was 401 ng/g; in the data set on Rat [9] it was 54.3 ng/g. Moreover, the figures for the concentration in plasma with Rat [5], in the data set with Rat [7] and in the data set with Rat [8] were 900 ng/mL, 31 ng/mL and 17.2 ng/mL, respectively. The concentration in thymus in the data set on Rat [6] is 4530 ng/g; in the data set on Rat [10], 3420 ng/g.
As for `OCCC(F)(F)C(F)(F)C(F)(F)C(F)(F)C(F)(F)C(F)(F)C(F)(F)C(F)(F)F` [Fluorotelomer alcohol 8+2], the values for the concentration in kidney in the data set on Rat [11], in the data set on Rat [13] and in the data set on Rat [16] were 4360 ng/g, 271 ng/g and 351 ng/g, respectively. Besides, the concentration in plasma in the data set on Rat [12] (0.5 h) turned out to be 274 ng/mL; with Rat [12] (9 h), 10.3 ng/mL; in the data set on Rat [14] (1 h), 619 ng/mL; with Rat [14] (6 h), 38.5 ng/mL. Moreover, the concentration in brain with Rat [15] was 1090 ng/g.
`CCCCOC(=O)c1ccccc1C(=O)O` [Mono-n-butyl phthalate]: the concentration in plasma was determined as 3830 ng/mL in the data set with Rat [17] and 3690 ng/mL in the data set on Rat [18].
`O=C(O)C(F)(F)C(F)(F)C(F)(F)C(F)(F)C(F)(F)C(F)(F)C(F)(F)C(F)(F)C(F)(F)F` [Perfluorodecanoic acid]: the concentration in plasma in the data set on Rat [19] (12 h) is 4670 ng/mL; with Rat [19] (1200 h), 1400 ng/mL. Besides, in the data set with Rat [20], the concentration in liver was found to be 59300 ng/g. This compound also showed a concentration in kidney in the data set with Rat [21] of 6050 ng/g.
For the compound `CCC1(c2ccccc2)C(=O)NC(=O)NC1=O` [Phenobarbital], the concentration in plasma came to 2120 ng/mL in the data set on Rat [22] and 1140 ng/mL in the data set with Rat [23].
`O=C(O)CSCC(=O)O` [Thiodiglycolic Acid]: the concentration in thymus was found to be 477 ng/g in the data set on Rat [24], 547 ng/g in the data set on Rat [25], 2310 ng/g with Rat [28] and 6960 ng/g in the data set on Rat [29]. Moreover, the concentration in liver is 176000 ng/g with Rat [26] and 91400 ng/g in the data set with Rat [30]. Further, the concentration in plasma with Rat [27] turned out to be 1560 ng/mL.
Consider `O=C(O)C(Cl)Cl` [dichloroacetic acid], for which the concentration in plasma worked out at 8230 ng/mL in the data set with Rat [31] (10 min), 25900 ng/mL with Rat [31] (4 h) and 12400 ng/mL in the data set with Rat [32].

The values above are taken from EPA's CvTdb concentration-time database.
